Measurements published in US7632783B2 (priority 2004, dated 2009).

Columns and labels:
[1] = tested on: rice blast (Pyricularia oryzae); type: in vivo; settings: potted rice (variety Karakaze), spraying liquid 300 ppm after spore inoculation, observed 7 days after inoculation, levels 0 to 3
[2] = tested on: gray mold (Botrytis cinerea); experiment: Tomato gray mold control test (preventive effects); type: in vivo; settings: potted tomato (giant Fukuju variety), spraying liquid 300 ppm before spore inoculation, investigated 2 days after inoculation, levels 0 to 3
Procedure: Bulk drug was dissolved in a mixed solution of dimethylsulfoxide and methanol (volume ratio: 7/3), and spraying liquids containing 300 ppm of compounds of the present invention were uniformly sprayed onto potted test plants (tomato: giant Fukuju variety) in the second to third leaf stage. […], a suspension of pathogen spores were inoculated by spraying onto the pots in an inoculation room at a room temperature of 20 to 23° C. to promote the onset of disease. The degree of disease onset was investigated 2 days after inoculation. The test was carried out in duplicate.
Furthermore, the degree of disease onset was evaluated to one of four levels from 0 to 3 according to the criteria below by macroscopically observing the degree of disease onset of the test plants.
1: Degree of disease onset less than 40% of the untreated area
2: Degree of disease onset 40% to less than 80% of the untreated area
3: Degree of disease onset 80% or more

| Structure (SMILES) | degree of disease onset [1] | degree of disease onset [2] | melting point [°C] |
| --- | --- | --- | --- |
| CC1(C)Cc2c(F)cccc2C(c2cnc3ccccc3c2)N1 (stereo not drawn) [Example 110, 3-(5-fluoro-3,3-dimethyl-1,2,3,4-tetrahydroisoquinoline-1-yl)quinoline] | 0 | 0 | 142 to 144 |
| CC1(C)Cc2c(Cl)cccc2C(c2cnc3ccccc3c2)N1 (stereo not drawn) [Example 112, 3-(5-chloro-3,3-dimethyl-1,2,3,4-tetrahydroisoquinoline-1-yl)quinoline] | 0 | 0 | 129 to 131 |
